According to patent publication US20230312670A1, “MYELIN OLIGODENDROCYTE GLYCOPROTEIN-SPECIFIC PEPTIDE FOR THE TREATMENT OR PREVENTION OF MULTIPLE SCLEROSIS” (LOMA LINDA UNIVERSITY, priority 2016, published 2023):
Entries after “also recorded” stand apart in the source; their conditions may differ. Marks after values point to notes of the source that are not given here.

How the values were obtained:
[1] = tested on: Qa-1^b/MOG196 tetramer^+CD8^+ T cells; assay: CD122 and Ly49 expression on Qa-1^b/MOG196 tetramer+ CD8+ T cells after immunization with MOG196-pulsed DC2.4 cells; type: in vivo, C57BL/6 mice; conditions: intravenous MOG196-pulsed DC2.4 cells at days 0 and 10, analysis ten days after last immunization
Description: FIG. 7A-7G. Immunization with DCs pulsed with MOG196 activates Qa-1^b/MOG196 tetramer^+ cells that specifically accumulate in cervical lymph nodes. (A) C57BL/6 mice (5 mice/group) were immunized with MOG35-55 for EAE. […] (B) Representative plots of Qa-1^b/MOG196tetramer^+ cells among CD8^+ T cells in cervical lymph nodes and spleens. (C) Cumulative data of Qa-1^b/MOG196tetramer^+ cells from five mice. *P<0.05. Two-way ANOVA test. (D) Representative plots of I-A^b/MOG38-49 tetramer^+ cells among CD8^− T cells in cervical lymph nodes and spleens. (E) Cumulative data of I-A^b/MOG38-49 tetramer^+ cells from five mice. *P<0.05. Two-way ANOVA test. (F) Experimental design for “G”: C57BL/6 mice were intravenously immunized with MOG196-pulsed DC2.4 cells at days 0 and 10. […]
(§1) Multichromatic flow cytometry: Briefly, about 0.5-1×10^6 cells in a FACS buffer (PBS containing 1% FBS and 0.05% sodium azide) were stained with various fluorescence-conjugated antibodies specific for the desired cell surface proteins or with tetramers at 4′C for 30 min. The stained cells were washed twice in the FACS buffer before being analyzed on a BD FACSAria II.
CD122 and Ly49 were expressed in a portion of the Qa-1^b/MOG196 tetramer+ cells. […] Expression of these two markers on the Qa-I^b/MOG196 tetramer+ cells was analyzed.

[2] = molecular target: Qa-1^b (Mus musculus, UniProt P06339); assay: In vitro refolding of peptide with recombinant Qa-1^b protein and β2 microglobulin; type: binding; conditions: 10° C., four days; size exclusion, anion exchange, tetramer formation
Qa-1^b, sequence (P06339 21-295 limits assumed): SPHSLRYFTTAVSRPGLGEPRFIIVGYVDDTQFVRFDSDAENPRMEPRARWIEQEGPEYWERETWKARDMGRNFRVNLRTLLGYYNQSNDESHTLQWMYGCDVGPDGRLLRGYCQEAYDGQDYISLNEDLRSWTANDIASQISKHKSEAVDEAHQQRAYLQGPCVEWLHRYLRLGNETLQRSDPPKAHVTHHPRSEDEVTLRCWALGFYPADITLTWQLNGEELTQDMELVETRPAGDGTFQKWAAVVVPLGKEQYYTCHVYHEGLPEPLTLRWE
Qa-1^b, sequence (P61769 21-119 partner): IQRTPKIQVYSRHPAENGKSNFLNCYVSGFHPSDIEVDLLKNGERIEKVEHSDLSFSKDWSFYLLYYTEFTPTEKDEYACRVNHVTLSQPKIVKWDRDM
Protocol: FIG. 4A-4D. MOG196 can bind to Qa-1^b and stimulate MOG196-specific Qa-1^b-restricted CD8^+ T cells. (A) MOG196 was incubated with recombinant Qa-1^b and β2 microglobulin in a protein refolding buffer at 10° C. under gentle agitation (60 rpm) for four days. The solution was separated by a size exclusion column. Peak “A” and “B” represented typical non-specific protein aggregates and correctly refolded MOG196/Qa-1^b monomer, respectively. (B) Monomers in peak B of panel “A” were further analyzed by an anion exchange chromatography. (C) Proteins in peaks “A”, “B1”, and “B2” were biotinylated and portions of the biotinylated proteins were incubated with streptavidin (SA) to examine formation of tetramers. The biotinylated proteins and corresponding tetramers were analyzed in a non-denature protein gel. Arrows show protein bands for MOG196/Qa-1^b monomers. “−”: without SA; “+”: with SA; “pk A”: peak A; “pk B1”: peak B1; “pk B2“ ” peak B2; “Std”: a protein standard. […] The CD8^+ T cells were analyzed for binding to Qa-1^b/MOG196 tetramer at days 0, 7, and 14. […]
MOG196 binds to Qa-1^b and activates MOG196—specific Qa-1^b—restricted CD8^+ T cells in vitro. […] Subsequently, the biotinylated proteins and streptavidin-conjugated tetramers were analyzed in a non-denature protein gel. […]

[3] = tested on: MOG196-specific Qa-1^b-restricted CD8^+ T cells; assay: In vitro stimulation of CD8+ T cells with MOG196-pulsed antigen-presenting cells, Qa-1^b/MOG196 tetramer staining; type: cell-based; conditions: weekly stimulation with MOG196-pulsed APCs from K^b−/−d^b−/− or C57Bl/6 mice; beginning on day 14
Protocol: FIG. 4A-4D. MOG196 can bind to Qa-1^b and stimulate MOG196-specific Qa-1^b-restricted CD8^+ T cells. (A) MOG196 was incubated with recombinant Qa-1^b and β2 microglobulin in a protein refolding buffer at 10° C. under gentle agitation (60 rpm) for four days. The solution was separated by a size exclusion column. Peak “A” and “B” represented typical non-specific protein aggregates and correctly refolded MOG196/Qa-1^b monomer, respectively. (B) Monomers in peak B of panel “A” were further analyzed by an anion exchange chromatography. (C) Proteins in peaks “A”, “B1”, and “B2” were biotinylated and portions of the biotinylated proteins were incubated with streptavidin (SA) to examine formation of tetramers. The biotinylated proteins and corresponding tetramers were analyzed in a non-denature protein gel. Arrows show protein bands for MOG196/Qa-1^b monomers. […] The CD8^+ T cells were analyzed for binding to Qa-1^b/MOG196 tetramer at days 0, 7, and 14. […]
as §1, with “II. […]” for “II.”

[4] = tested on: CD8^+ T cells; assay: IFN-γ Enzyme-linked ImmunoSpot of CD8+ T cells with C1R or C1R.Qa-1^b antigen-presenting cells; type: cell-based, K^b−/−D^b−/− mice; conditions: in the presence of C1R.Qa-1^b cells
Protocol: FIG. 1A-1C. Portion of CD8^+ T cells reactive to the pool of overlapping peptides (OLPs) covering the whole length of mouse MOG was Qa-1^b restricted. (A) A schematic view of the mouse MOG OLP library. 15mer peptides across the whole length of mouse MOG (247 amino acids) and overlapped by 11 amino acids were synthesized. A pool of the 59 OLPs (“MOG_pool”) at a concentration of 4.2 μg/ml for each peptide was then generated for stimulating CD8^+ T cells purified from K^b−/−D^b−/− mice. (B) Experimental design for Enzyme-linked ImmunoSpot assay in “C”: CD8^+ T cells purified from K^b−/−D^b−/− mice were stimulated with the MOG_pool in vitro on a weekly basis. Before being stimulated each time, the CD8^+ T cells were monitored for response to the MOG_pool, using IFN-γ Enzyme-linked ImmunoSpot, in the presence of either C1R or C1R.Qa-1^b cells as antigen presenting cells. (C) Enzyme-linked ImmunoSpot data on day 7 were shown and were representative of three independent experiments. The number at the upper left corner of each well is the absolute number of IFN-γ spot forming cells (SFCs) in the corresponding well (50,000 CD8 T cells/well).
FIG. 2A-2F. Recognition of multiple OLPs by the MOG_pool-reactive CD8^+ T cell lines depended on Qa-1^b. (A-D) MOG_pool-reactive CD8^+ T cell lines were generated as described in FIG. 1. […]

## IICYNWLHR [MOG196]
[1]
  tetramer+ cells expressing CD122: about 22.6%
  tetramer+ cells expressing both CD122 and Ly49: about 7.2%
[2]
  binding to Qa-1^b (refolding into MOG196/Qa-1^b/β2m monomer): could bind to Qa-1^b
[3]
  Qa-1^b/MOG196 tetramer+ cells in CD8^+ T cell lines: could be detected
[4]
  stimulation of an OLP105-reactive CD8^+ T cell line by truncated OLP105 peptides (IFN-γ SFCs): minimal and optimal epitope in OLP105; also recorded: highest response
